ChEMBL document CHEMBL1143509, “Novel cyclopentane dicarboxamide sodium channel blockers as a potential treatment for chronic pain” (Bioorg Med Chem Lett, 2005)
pIC50, pKi: −log10 of the molar value.

What was measured:
[1] = biological target: T1, Sodium channel protein type 9 subunit alpha (Homo sapiens, UniProt Q15858); experiment: In vitro inhibitory concentration against voltage-gated sodium channel Nav1.7 in voltage-ion-probe-reader (VIPR) assay; assay type: functional
[2] = biological target: T1, Sodium channel protein type 9 subunit alpha; experiment: Inhibitory constant against voltage-gated sodium channel Nav1.7 in electrophysiology assays (EP); assay type: functional
[3] = Bioavailability in rat; assay type: ADME, organism-based; details: in vivo
[4] = Clearance value of the compound was determined in plasma of rat; assay type: ADME, organism-based; details: read-out: Clp
[5] = Half life period of the compound was determined in rat; assay type: ADME; details: in vivo

T1 sequence (Q15858 whole entry): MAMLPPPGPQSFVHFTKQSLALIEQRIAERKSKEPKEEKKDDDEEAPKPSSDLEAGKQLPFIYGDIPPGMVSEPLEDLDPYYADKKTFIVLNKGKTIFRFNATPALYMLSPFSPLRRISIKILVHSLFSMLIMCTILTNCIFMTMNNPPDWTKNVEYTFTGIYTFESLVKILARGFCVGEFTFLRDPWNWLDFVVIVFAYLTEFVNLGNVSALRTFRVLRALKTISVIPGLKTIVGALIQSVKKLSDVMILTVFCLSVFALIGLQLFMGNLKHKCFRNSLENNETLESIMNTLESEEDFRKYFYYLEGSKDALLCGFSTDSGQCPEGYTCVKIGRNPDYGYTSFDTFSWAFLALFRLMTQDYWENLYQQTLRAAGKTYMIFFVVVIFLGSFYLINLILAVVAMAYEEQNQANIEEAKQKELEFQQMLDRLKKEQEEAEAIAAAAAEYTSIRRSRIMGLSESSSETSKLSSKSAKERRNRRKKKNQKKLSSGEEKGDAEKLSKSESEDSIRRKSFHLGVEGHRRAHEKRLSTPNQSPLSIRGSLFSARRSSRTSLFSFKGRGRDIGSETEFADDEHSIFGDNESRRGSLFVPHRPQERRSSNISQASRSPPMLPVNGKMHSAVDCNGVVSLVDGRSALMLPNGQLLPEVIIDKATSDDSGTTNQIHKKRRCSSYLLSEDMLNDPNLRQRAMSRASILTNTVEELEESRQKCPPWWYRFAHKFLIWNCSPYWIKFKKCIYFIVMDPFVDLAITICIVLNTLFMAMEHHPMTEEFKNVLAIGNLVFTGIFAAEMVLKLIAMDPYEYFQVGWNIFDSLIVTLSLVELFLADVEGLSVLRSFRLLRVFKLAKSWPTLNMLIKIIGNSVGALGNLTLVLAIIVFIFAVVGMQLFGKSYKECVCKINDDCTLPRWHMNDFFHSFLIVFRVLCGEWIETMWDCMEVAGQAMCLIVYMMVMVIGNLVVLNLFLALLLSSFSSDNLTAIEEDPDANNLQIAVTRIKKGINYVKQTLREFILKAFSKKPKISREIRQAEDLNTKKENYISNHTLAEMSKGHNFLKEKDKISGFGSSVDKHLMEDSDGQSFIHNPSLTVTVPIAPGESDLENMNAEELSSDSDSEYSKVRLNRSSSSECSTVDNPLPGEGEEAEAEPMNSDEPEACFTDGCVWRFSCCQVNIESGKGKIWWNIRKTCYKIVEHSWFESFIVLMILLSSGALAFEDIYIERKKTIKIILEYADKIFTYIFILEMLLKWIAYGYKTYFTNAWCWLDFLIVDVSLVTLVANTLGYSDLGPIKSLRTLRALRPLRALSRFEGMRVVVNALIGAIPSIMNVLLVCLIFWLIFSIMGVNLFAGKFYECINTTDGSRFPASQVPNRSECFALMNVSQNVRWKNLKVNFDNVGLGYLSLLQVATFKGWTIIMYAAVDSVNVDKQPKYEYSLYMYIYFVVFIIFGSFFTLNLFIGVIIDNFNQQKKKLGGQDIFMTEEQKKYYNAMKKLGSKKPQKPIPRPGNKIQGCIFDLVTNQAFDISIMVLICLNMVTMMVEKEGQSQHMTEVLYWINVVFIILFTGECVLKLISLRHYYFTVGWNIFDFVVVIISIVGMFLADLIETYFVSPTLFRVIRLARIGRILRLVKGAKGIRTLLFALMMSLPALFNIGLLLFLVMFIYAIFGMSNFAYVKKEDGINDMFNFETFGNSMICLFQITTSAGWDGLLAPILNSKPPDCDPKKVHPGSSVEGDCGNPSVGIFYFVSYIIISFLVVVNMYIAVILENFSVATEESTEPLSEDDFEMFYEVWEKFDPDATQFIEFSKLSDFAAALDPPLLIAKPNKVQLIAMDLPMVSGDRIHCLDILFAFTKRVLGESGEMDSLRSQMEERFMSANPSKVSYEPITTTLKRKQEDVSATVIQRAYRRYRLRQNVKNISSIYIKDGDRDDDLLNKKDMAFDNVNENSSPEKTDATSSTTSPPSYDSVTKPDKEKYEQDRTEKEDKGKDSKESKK

SMILES	pIC50 [1]	pKi [2]	bioavailability [3] [%]	clearance [4] [mL/min/kg]	half-life [5] [min]
NS(=O)(=O)c1ccccc1-c1ccc(CNC(=O)/C=C\C(=O)NCc2ccc(-c3cccs3)s2)cc1	6.28	6.39			
CN(Cc1ccc(-c2ccccc2S(N)(=O)=O)cc1)C(=O)CCC(=O)NCc1cccc(OC(F)(F)F)c1			27	141	30
CC(C(=O)NCc1ccc(-c2ccccc2S(N)(=O)=O)cc1)C(C)C(=O)NCc1ccc(-c2cccs2)s1 (stereo not drawn)	5.85				
NS(=O)(=O)c1ccccc1-c1ccc(CNC(=O)c2cccc(C(=O)NCc3ccc(-c4cccs4)s3)c2)cc1	5.54	5.21			
NS(=O)(=O)c1ccccc1-c1ccc(CNC(=O)CC(=O)NCc2ccc(-c3cccs3)s2)cc1	6.07				
NS(=O)(=O)c1ccccc1-c1ccc(CNC(=O)CCCC(=O)NCc2ccc(-c3cccs3)s2)cc1	5.49				
NS(=O)(=O)c1ccccc1-c1ccc(CNC(=O)c2ccccc2C(=O)NCc2ccc(-c3cccs3)s2)cc1	5.66	6.85			
NS(=O)(=O)c1ccccc1-c1ccc(CNC(=O)CCC(=O)NCc2ccc(-c3cccs3)s2)cc1	6.82	6.82	1.9	68	30
CC(C)(CC(=O)NCc1ccc(-c2ccccc2S(N)(=O)=O)cc1)C(=O)NCc1ccc(-c2cccs2)s1	5.64				
CC(NC(=O)[C@H]1CCC[C@@H]1C(=O)NCc1ccc(-c2ccccc2S(N)(=O)=O)cc1)c1ccc(-c2cccs2)s1 (mixture of isomers)	5.00				
CC(NC(=O)[C@H]1CCC[C@@H]1C(=O)NCc1ccc(-c2cccs2)s1)c1ccc(-c2ccccc2S(N)(=O)=O)cc1 (mixture of isomers)	5.85	7.30			
CC(NC(=O)[C@H]1CCC[C@@H]1C(=O)N(C)Cc1ccc(-c2ccccc2S(N)(=O)=O)cc1)c1ccc(-c2cccs2)s1 (mixture of isomers)	5.00				
CN(Cc1ccc(-c2cccs2)s1)C(=O)[C@H]1CCC[C@@H]1C(=O)NCc1ccc(-c2ccccc2S(N)(=O)=O)cc1 (racemic)	5.28				
CN(Cc1ccc(-c2ccccc2S(N)(=O)=O)cc1)C(=O)[C@H]1CCC[C@@H]1C(=O)NCc1ccc(C(F)(F)F)cc1 (racemic)	5.60	6.55			
CN(Cc1ccc(-c2ccccc2S(N)(=O)=O)cc1)C(=O)[C@H]1CCC[C@@H]1C(=O)N(C)Cc1ccc(-c2cccs2)s1 (racemic)	< 5.00				
NS(=O)(=O)c1ccccc1-c1ccc(CNC(=O)[C@H]2CCC[C@@H]2C(=O)NCc2ccc(-c3cccs3)s2)cc1 (racemic)	6.43	7.22	1.2	39	18
NS(=O)(=O)c1ccccc1-c1ccc(CNC(=O)[C@H]2CCC[C@@H]2C(=O)NCc2ccccc2)cc1 (racemic)	5.30				

SMILES	pIC50 [1]	pKi [2]	bioavailability [3] [%]	clearance [4] [mL/min/kg]	half-life [5] [min]
NS(=O)(=O)c1ccccc1-c1ccc(CNC(=O)[C@H]2CCC[C@@H]2C(=O)NCc2cccc(OC(F)(F)F)c2)cc1 (racemic)	5.96				
CN(Cc1ccc(-c2ccccc2S(N)(=O)=O)cc1)C(=O)[C@H]1CCC[C@@H]1C(=O)NCc1ccccc1 (racemic)	< 5.00				
NS(=O)(=O)c1ccccc1-c1ccc(CNC(=O)[C@H]2CC[C@@H]2C(=O)NCc2ccc(-c3cccs3)s2)cc1 (racemic)	6.68				
NS(=O)(=O)c1ccccc1-c1ccc(CNC(=O)[C@H]2CCC[C@@H]2C(=O)NCc2ccc(-c3ccccc3C(F)(F)F)cc2)cc1 (racemic)	6.43	6.29			
NS(=O)(=O)c1ccccc1-c1ccc(CNC(=O)[C@H]2CCC[C@@H]2C(=O)NCc2ccc(OC(F)(F)F)cc2)cc1 (racemic)	6.52	6.44			
COc1ccccc1-c1ccc(CNC(=O)[C@H]2CCC[C@@H]2C(=O)NCc2ccc(-c3ccccc3S(N)(=O)=O)cc2)cc1 (racemic)	6.18	6.16			
Cc1ccccc1-c1ccc(CNC(=O)[C@H]2CCC[C@@H]2C(=O)NCc2ccc(-c3ccccc3S(N)(=O)=O)cc2)cc1 (racemic)	5.68	6.43			
CN(Cc1ccc(-c2ccccc2S(N)(=O)=O)cc1)C(=O)[C@H]1CCC[C@@H]1C(=O)NCc1cccc(OC(F)(F)F)c1 (racemic)	5.89	6.28			
C=C1[C@H](C(=O)NCc2ccc(-c3ccccc3S(N)(=O)=O)cc2)[C@H]1C(=O)NCc1ccc(-c2cccs2)s1 (racemic)	6.08	5.24			
COc1ccc(CNC(=O)[C@H]2CCC[C@@H]2C(=O)NCc2ccc(-c3ccccc3S(N)(=O)=O)cc2)cc1 (racemic)	5.30	4.92			
NS(=O)(=O)c1ccccc1-c1ccc(CNC(=O)[C@H]2CCC[C@@H]2C(=O)NCc2ccc([N+](=O)[O-])cc2)cc1 (racemic)	5.55	5.70			
NS(=O)(=O)c1ccccc1-c1ccc(CNC(=O)[C@H]2CCCC[C@@H]2C(=O)NCc2ccc(-c3cccs3)s2)cc1 (racemic)	5.85	5.68			
CN(Cc1ccc(-c2ccccc2S(N)(=O)=O)cc1)C(=O)[C@H]1CCC[C@@H]1C(=O)NCc1ccc(-c2cccs2)s1 (racemic)	6.12		3.3	13	72
CN(Cc1ccc(-c2ccccc2S(N)(=O)=O)cc1)C(=O)[C@H]1CCC[C@@H]1C(=O)NCc1ccc(OC(F)(F)F)cc1 (racemic)	6.08	6.68	44	14	58.8
NS(=O)(=O)c1ccccc1-c1ccc(CNC(=O)[C@H]2CCC[C@@H]2C(=O)NCc2ccc(-c3ccccc3)cc2)cc1 (racemic)	6.18	7.52			
NS(=O)(=O)c1ccccc1-c1ccc(CNC(=O)[C@H]2CCC[C@H]2C(=O)NCc2ccc(-c3cccs3)s2)cc1 (racemic)	5.80	6.17			
COc1ccc(CNC(=O)[C@H]2CCC[C@@H]2C(=O)N(C)Cc2ccc(-c3ccccc3S(N)(=O)=O)cc2)cc1 (racemic)	5.00	5.68			
